From the supplement of paper PMC10307832

What was measured:
Assay in all cases: relative viability (nuclei count vs DMSO), 5 days (fraction); higher = more cells survive
A-427 = system: A-427
Procedure, shortened: (§1)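 Lung cancer cell lines in 1536-well plates got either a single drug or a fixed anchor-drug dose together with five library-drug doses (not always all listed) in √10 steps, by pin tool, on the day after seeding. Nuclei were counted after 5 days, and relative viability is the treated-to-vehicle ratio of nuclei counts. Values are medians of duplicate plates.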

H3255 = system: H3255
Procedure, shortened: as §1

HARA = system: HARA
Procedure, shortened: as §1

HCC-15 = system: HCC-15
Procedure, shortened: as §1

HCC-366 = system: HCC-366
Procedure, shortened: as §1

LXF-289 = system: LXF-289
Procedure, shortened: as §1

NCI-H1437 = system: NCI-H1437
Procedure, shortened: as §1

NCI-H1755 = system: NCI-H1755
Procedure, shortened: as §1

NCI-H1793 = system: NCI-H1793
Procedure, shortened: as §1

NCI-H1915 = system: NCI-H1915
Procedure, shortened: as §1

NCI-H1975 = system: NCI-H1975
Procedure, shortened: as §1

NCI-H2009 = system: NCI-H2009
Procedure, shortened: as §1

NCI-H2023 = system: NCI-H2023
Procedure, shortened: as §1

NCI-H2405 = system: NCI-H2405
Procedure, shortened: as §1

NCI-H3122 = system: NCI-H3122
Procedure, shortened: as §1

NCI-H441 = system: NCI-H441
Procedure, shortened: as §1

NCI-H460 = system: NCI-H460
Procedure, shortened: as §1

NCI-H596 = system: NCI-H596
Procedure, shortened: as §1

NCI-H650 = system: NCI-H650
Procedure, shortened: as §1

PC-14 = system: PC-14
Procedure, shortened: as §1

PC-3 [JPC-3] = system: PC-3 [JPC-3]
Procedure, shortened: as §1

SK-LU-1 = system: SK-LU-1
Procedure, shortened: as §1

UMC-11 = system: UMC-11
Procedure, shortened: as §1

Q: Which results are given for `Cc1cnc(-c2cnc(NCCNc3ccc(C#N)cn3)nc2-c2ccc(Cl)cc2Cl)[nH]1` + Nc1ncn([C@H]2C[C@H](O)[C@@H](CO)O2)c(=O)n1 [Decitabine] (partner 2 µM)?
A: relative viability (A-427; first compound 0.08 µM): 0.535; relative viability (A-427; first compound 0.253 µM): 0.526; relative viability (A-427; first compound 0.8 µM): 0.61; relative viability (A-427; first compound 2.53 µM): 0.618; relative viability (H3255; first compound 0.08 µM): 0.765; relative viability (H3255; first compound 0.253 µM): 0.531; relative viability (H3255; first compound 0.8 µM): 0.551; relative viability (H3255; first compound 2.53 µM): 0.567; relative viability (HARA; first compound 0.08 µM): 0.654; relative viability (HARA; first compound 0.253 µM): 0.471; relative viability (HARA; first compound 0.8 µM): 0.553; relative viability (HARA; first compound 2.53 µM): 0.642; relative viability (HCC-15; first compound 0.08 µM): 0.701; relative viability (HCC-15; first compound 0.253 µM): 0.588; relative viability (HCC-15; first compound 0.8 µM): 0.756; relative viability (HCC-15; first compound 2.53 µM): 0.704; relative viability (HCC-366; first compound 0.08 µM): 0.372; relative viability (HCC-366; first compound 0.253 µM): 0.318; relative viability (HCC-366; first compound 0.8 µM): 0.288; relative viability (HCC-366; first compound 2.53 µM): 0.335; relative viability (LXF-289; first compound 0.08 µM): 0.374; relative viability (LXF-289; first compound 0.253 µM): 0.364; relative viability (LXF-289; first compound 0.8 µM): 0.392; relative viability (LXF-289; first compound 2.53 µM): 0.398; relative viability (NCI-H1437; first compound 0.08 µM): 0.538; relative viability (NCI-H1437; first compound 0.253 µM): 0.511; relative viability (NCI-H1437; first compound 0.8 µM): 0.558; relative viability (NCI-H1437; first compound 2.53 µM): 0.563; relative viability (NCI-H1755; first compound 0.08 µM): 0.723; relative viability (NCI-H1755; first compound 0.253 µM): 0.726; relative viability (NCI-H1755; first compound 0.8 µM): 0.771; relative viability (NCI-H1755; first compound 2.53 µM): 0.704; relative viability (NCI-H1793; first compound 0.08 µM): 0.494; relative viability (NCI-H1793; first compound 0.253 µM): 0.514; relative viability (NCI-H1793; first compound 0.8 µM): 0.583; relative viability (NCI-H1793; first compound 2.53 µM): 0.541; relative viability (NCI-H1915; first compound 0.08 µM): 0.275; relative viability (NCI-H1915; first compound 0.8 µM): 0.286; relative viability (NCI-H1915; first compound 2.53 µM): 0.264; relative viability (NCI-H1975; first compound 0.08 µM): 0.349; relative viability (NCI-H1975; first compound 0.253 µM): 0.361; relative viability (NCI-H1975; first compound 0.8 µM): 0.409; relative viability (NCI-H1975; first compound 2.53 µM): 0.314; relative viability (NCI-H2009; first compound 0.08 µM): 0.426; relative viability (NCI-H2009; first compound 0.253 µM): 0.37; relative viability (NCI-H2009; first compound 0.8 µM): 0.404; relative viability (NCI-H2009; first compound 2.53 µM): 0.395; relative viability (NCI-H2023; first compound 0.08 µM): 0.232; relative viability (NCI-H2023; first compound 0.253 µM): 0.195; relative viability (NCI-H2023; first compound 0.8 µM): 0.241; relative viability (NCI-H2023; first compound 2.53 µM): 0.228; relative viability (NCI-H2405; first compound 0.08 µM): 0.799; relative viability (NCI-H2405; first compound 0.253 µM): 0.734; relative viability (NCI-H2405; first compound 0.8 µM): 0.758; relative viability (NCI-H2405; first compound 2.53 µM): 0.645; relative viability (NCI-H3122; first compound 0.08 µM): 0.461; relative viability (NCI-H3122; first compound 0.8 µM): 0.461; relative viability (NCI-H3122; first compound 2.53 µM): 0.386; relative viability (NCI-H441; first compound 0.08 µM): 0.238; relative viability (NCI-H441; first compound 0.8 µM): 0.251; relative viability (NCI-H441; first compound 2.53 µM): 0.255; relative viability (NCI-H460; first compound 0.08 µM): 0.537; relative viability (NCI-H460; first compound 0.253 µM): 0.454; relative viability (NCI-H460; first compound 0.8 µM): 0.54; relative viability (NCI-H460; first compound 2.53 µM): 0.488; relative viability (NCI-H596; first compound 0.08 µM): 1.08; relative viability (NCI-H596; first compound 0.253 µM): 0.995; relative viability (NCI-H596; first compound 0.8 µM): 1.03; relative viability (NCI-H596; first compound 2.53 µM): 1.07; relative viability (NCI-H650; first compound 0.08 µM): 0.356; relative viability (NCI-H650; first compound 0.253 µM): 0.339; relative viability (NCI-H650; first compound 0.8 µM): 0.302; relative viability (NCI-H650; first compound 2.53 µM): 0.329; relative viability (PC-14; first compound 0.08 µM): 0.232; relative viability (PC-14; first compound 0.253 µM): 0.171; relative viability (PC-14; first compound 0.8 µM): 0.217; relative viability (PC-14; first compound 2.53 µM): 0.234; relative viability (PC-3 [JPC-3]; first compound 0.08 µM): 0.777; relative viability (PC-3 [JPC-3]; first compound 0.253 µM): 0.825; relative viability (PC-3 [JPC-3]; first compound 0.8 µM): 0.785; relative viability (PC-3 [JPC-3]; first compound 2.53 µM): 0.791; relative viability (SK-LU-1; first compound 0.08 µM): 0.645; relative viability (SK-LU-1; first compound 0.253 µM): 0.478; relative viability (SK-LU-1; first compound 0.8 µM): 0.688; relative viability (SK-LU-1; first compound 2.53 µM): 0.711; relative viability (UMC-11; first compound 0.08 µM): 0.727; relative viability (UMC-11; first compound 0.253 µM): 0.533; relative viability (UMC-11; first compound 0.8 µM): 0.314; relative viability (UMC-11; first compound 2.53 µM): 0.668
